For 31 compounds, Ki results are on record in US8791130B2, “Aminopyrimidine derivatives as LRRK2 modulators” (Genentech, Inc., priority 2011, dated 2014).

For the assay, the target named is LRRK2 (Homo sapiens (Human), UniProt Q5S007, G2019S). The experiment in a line: In Vitro LRRK2 LabChip Assay (LRRK2 Ki). The assay is classed as biochemical. Here is the method: In Vitro LRRK2 LabChip Assay This assay was used to determine a compound's potency in inhibiting activity of LRRK2 by determining, Kiapp, IC50, or percent inhibition values. In a polypropylene plate, LRRK2, fluorescently-labeled peptide substrate, ATP and test compound were incubated together. Using a LabChip 3000 (Caliper Life Sciences), after the reaction the substrate was separated by capillary electrophoresis into two populations: phosphorylated and unphosphorylated. The relative amounts of each were quantitated by fluorescence intensity. LRRK2 Ki was determined according to the equation: […]))). Ki values in Table 4 and elsewhere herein are shown in μM. […] Substrate: 5[…] Non-binding plate: 384 well clear V-bottom polypropylene plates (Greiner cat #781280). ATP: 10 mM ATP (Cell Signaling cat #9804). Triton X-100: Triton X-100. Brij-35: Brij-35 (Pierce cat #20150). […] DMSO: DMSO (Sigma cat #34869-100 ML). […] Compound Plate Preparation: For serial dilutions, 34.6 μl DMSO was added to columns 3-24. For the assay controls, 37.5 μl DMSO was added to columns 1 and 2 of rows A and […]-028831 (Staurosporine) was added to columns 1 and 2, row B. […] A Precision instrument was used to perform 1:3.16 serial dilutions (“PLK_BM_serial_halflog”). ATP Preparation: ATP was diluted to 282.1 μM in Complete Kinase Buffer (final concentration was 130 μM). […] Assay Procedure: To a 50 μl polypropylene plate, 5 μl/well buffer/substrate was added by hand to Blank wells. A Biomek FX was used to start the kinase reaction (“PLK SAR 23 ATP”). […] 5 μl/well kinase/substrate in Assay Plate; The plate was incubated for 2 hours in the dark. Biomek FX was used to stop the kinase reaction (“PLK Stop”), and 10 μl/well Stop solution was added to the Assay Plate.
LRRK2, sequence (Q5S007 970-2527 G2019S): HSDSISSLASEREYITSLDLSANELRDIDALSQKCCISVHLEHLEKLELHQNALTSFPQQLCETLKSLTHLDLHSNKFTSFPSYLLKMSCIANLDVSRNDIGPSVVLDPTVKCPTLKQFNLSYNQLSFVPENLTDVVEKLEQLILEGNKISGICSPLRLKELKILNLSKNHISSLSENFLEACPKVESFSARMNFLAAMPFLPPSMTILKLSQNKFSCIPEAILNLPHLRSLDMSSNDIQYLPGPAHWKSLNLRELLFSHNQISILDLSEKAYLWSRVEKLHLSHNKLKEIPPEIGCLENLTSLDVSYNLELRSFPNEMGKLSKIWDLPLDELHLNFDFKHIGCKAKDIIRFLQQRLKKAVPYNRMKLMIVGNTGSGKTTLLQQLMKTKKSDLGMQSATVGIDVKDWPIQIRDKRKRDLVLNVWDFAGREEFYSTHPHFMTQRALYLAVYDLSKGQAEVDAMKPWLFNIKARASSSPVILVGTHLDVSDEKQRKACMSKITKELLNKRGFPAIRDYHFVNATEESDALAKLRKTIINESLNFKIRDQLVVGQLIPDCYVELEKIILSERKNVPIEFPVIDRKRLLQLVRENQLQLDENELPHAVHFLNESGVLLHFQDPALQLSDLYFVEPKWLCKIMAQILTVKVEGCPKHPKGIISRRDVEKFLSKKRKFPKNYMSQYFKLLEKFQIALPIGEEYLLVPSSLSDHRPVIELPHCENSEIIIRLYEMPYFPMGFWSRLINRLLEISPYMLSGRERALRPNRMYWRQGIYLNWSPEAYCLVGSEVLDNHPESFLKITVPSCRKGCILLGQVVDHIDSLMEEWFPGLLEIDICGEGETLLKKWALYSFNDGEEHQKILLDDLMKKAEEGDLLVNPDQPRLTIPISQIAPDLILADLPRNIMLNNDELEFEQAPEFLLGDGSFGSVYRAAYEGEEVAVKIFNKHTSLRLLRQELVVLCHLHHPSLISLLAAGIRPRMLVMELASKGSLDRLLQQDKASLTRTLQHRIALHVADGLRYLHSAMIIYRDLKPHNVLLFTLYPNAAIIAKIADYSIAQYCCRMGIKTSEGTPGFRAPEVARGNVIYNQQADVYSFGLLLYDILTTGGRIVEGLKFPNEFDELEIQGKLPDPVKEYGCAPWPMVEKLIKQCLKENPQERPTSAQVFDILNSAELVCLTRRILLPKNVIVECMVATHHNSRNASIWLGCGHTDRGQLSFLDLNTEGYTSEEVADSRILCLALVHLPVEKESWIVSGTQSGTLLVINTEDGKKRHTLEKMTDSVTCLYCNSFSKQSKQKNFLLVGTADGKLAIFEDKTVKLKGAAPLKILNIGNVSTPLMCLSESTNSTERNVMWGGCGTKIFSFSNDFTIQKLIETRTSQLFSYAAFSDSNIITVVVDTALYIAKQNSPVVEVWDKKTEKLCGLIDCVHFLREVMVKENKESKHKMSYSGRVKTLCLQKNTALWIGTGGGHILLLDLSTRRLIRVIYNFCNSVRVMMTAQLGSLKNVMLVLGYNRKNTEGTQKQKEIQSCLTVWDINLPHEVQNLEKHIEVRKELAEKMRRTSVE
The term Ki denotes a measure of affinity in units of concentration, obtained from inhibition or displacement. A low value points to tighter binding. For the compound `CNc1nc(Nc2cc(F)c(-n3nc(C)cc3COC)cc2OC)ncc1C(F)(F)F` [Compound 47, N2-(5-fluoro-2-methoxy-4-(5-(methoxymethyl)-3-methyl-1H-pyrazol-1-yl)phenyl)-N4-methyl-5-(trifluoromethyl) pyrimidine-2,4-diamine], the Ki was found to be 5 nM.

Turning to `CNc1nc(Nc2cc(F)c(-n3nnnc3C)cc2OC)ncc1C(F)(F)F` [Compound 42, N2-(5-fluoro-2-methoxy-4-(5-methyl-1H-tetrazol-1-yl)phenyl)-N4-methyl-5-(trifluoromethyl) pyrimidine-2,4-diamine], affinity was put at a Ki of 3 nM.

In the case of `CNc1nc(Nc2cc(OC)c(-c3nccn3C)cc2Cl)ncc1C(F)(F)F` [Compound 19, N^2-(2-chloro-5-methoxy-4-(1-methyl-1H-imidazol-2-yl)phenyl)-N^4-methyl-5-(trifluoromethyl) pyrimidine-2,4-diamine], the Ki was 3 nM.

Compound `CNc1nc(Nc2cc(OC)c(-c3cncn3C)cc2Cl)ncc1C(F)(F)F` [Compound 21, N^2-(2-chloro-5-methoxy-4-(1-methyl-1H-imidazol-5-yl)phenyl)-N^4-methyl-5-(trifluoromethyl) pyrimidine-2,4-diamine] came in with a Ki of 3 nM.

In the case of `CNc1nc(Nc2cc(F)c(-c3nnc(C)o3)cc2OC)ncc1C(F)(F)F` [Compound 30, N^2-(5-fluoro-2-methoxy-4-(5-methyl-1,3,4-oxadiazol-2-yl)phenyl)-N^4-methyl-5-(trifluoromethyl) pyrimidine-2,4-diamine], the inhibition constant (Ki) worked out at 12 nM.

In turn, `CNc1nc(Nc2cc(OC)c(-c3nc(C)no3)cc2Cl)ncc1Cl` [Compound 36, 5-chloro-N^2-(2-chloro-5-methoxy-4-(3-methyl-1,2,4-oxadiazol-5-yl)phenyl)-N^4-methylpyrimidine-2,4-diamine] yielded a Ki of 44 nM.

Compound `CNc1nc(Nc2cc(OC)c(-c3cnnn3C)cc2Cl)ncc1C(F)(F)F` [Compound 11, N^2-(2-chloro-5-methoxy-4-(1-methyl-1H-1,2,3-triazol-5-yl)phenyl)-N^4-methyl-5-(trifluoromethyl) pyrimidine-2,4-diamine] yielded a Ki of 4 nM.

In the case of `CNc1nc(Nc2cc(OC)c(-c3nnc(C)o3)cc2Cl)ncc1C(F)(F)F` [Compound 7, N2-(2-chloro-5-methoxy-4-(5-methyl-1,3,4-oxadiazol-2-yl)phenyl)-N4-methyl-5-(trifluoromethyl) pyrimidine-2,4-diamine], the Ki is 8 nM.

Take `CNc1nc(Nc2ccc(-c3cnn(C)c3C)cc2OC)ncc1C(F)(F)F` [Compound 39, N2-(4-(1,5-dimethyl-1H-pyrazol-4-yl)-2-methoxyphenyl)-N4-methyl-5-(trifluoromethyl) pyrimidine-2,4-diamine]: affinity was put at a Ki of 3 nM.

As for `CNc1nc(Nc2ccc(-c3nnnn3C)cc2OC)ncc1C(F)(F)F` [Compound 20, N^2-(2-methoxy-4-(1-methyl-1H-tetrazol-5-yl)phenyl)-N^4-methyl-5-(trifluoromethyl) pyrimidine-2,4-diamine], affinity was put at a Ki of 3 nM.

`CNc1nc(Nc2ccc(-c3ccnn3C)cc2OC)ncc1C(F)(F)F` [Compound 25, N^2-(2-methoxy-4-(1-methyl-1H-pyrazol-5-yl)phenyl)-N^4-methyl-5-(trifluoromethyl) pyrimidine-2,4-diamine]: the affinity corresponds to a Ki of 1 nM.

Turning to `CNc1nc(Nc2ccc(-c3nc(C)no3)cc2Cl)ncc1Cl` [Compound 34, 5-chloro-N^2-(2-chloro-4-(3-methyl-1,2,4-oxadiazol-5-yl)phenyl)-N^4-methylpyrimidine-2,4-diamine], the Ki was 80 nM.

As for `CNc1nc(Nc2ccc(-c3cnnn3C)cc2OC)ncc1C(F)(F)F` [Compound 17, N^2-(2-methoxy-4-(1-methyl-1H-1,2,3-triazol-5-yl)phenyl)-N^4-methyl-5-(trifluoromethyl) pyrimidine-2,4-diamine], the inhibition constant (Ki) stood at 2 nM.

The compound `CNc1nc(Nc2cc(C)c(-n3nnnc3COC)cc2OC)ncc1C(F)(F)F` [Compound 46, N2-(2-methoxy-4-(5-(methoxymethyl)-1H-tetrazol-1-yl)-5-methylphenyl)-N4-methyl-5-(trifluuromethyl) pyrimidine-2,4-diamine] returned a Ki of 1 nM.

Regarding `CNc1nc(Nc2cc(F)c(-c3cnn(C4COC4)c3)cc2OC)ncc1C(F)(F)F` [Compound 44, N2-(5-fluoro-2-methoxy-4-(1-(oxetan-3-yl)-1H-pyrazol-4-yl)phenyl)-N4-methyl-5-(trifluoromethyl) pyrimidine-2,4-diamine], affinity was put at a Ki of 10 nM.

As to `CNc1nc(Nc2ccc(-c3cnnn3C)cc2OC)ncc1Cl` [Compound 23, 5-chloro-N^2-(2-methoxy-4-(1-methyl-1H-1,2,3-triazol-5-yl)phenyl)-N^4-methylpyrimidine-2,4-diamine], the inhibitory constant (Ki) is 3 nM.

In the case of `CNc1nc(Nc2ccc(-c3nnc(C)o3)cc2Cl)ncc1Cl` [Compound 33, 5-chloro-N^2-(2-chloro-4-(5-methyl-1,3,4-oxadiazol-2-yl)phenyl)-N^4-methylpyrimidine-2,4-diamine], the inhibition constant (Ki) stood at 30 nM.

Consider `CNc1nc(Nc2ccc(-n3cnnn3)cc2OC)ncc1C(F)(F)F` [Compound 27, N^2-(2-methoxy-4-(1H-tetrazol-1-yl)phenyl)-N^4-methyl-5-(trifluoromethyl) pyrimidine-2,4-diamine], for which the Ki is 2 nM.

`CNc1nc(Nc2ccc(-c3cncn3C)cc2OC)ncc1C(F)(F)F` [Compound 8] gave a Ki of 2 nM.

For the compound `CNc1nc(Nc2ccc(-c3cnn(C)c3)cc2OC)ncc1Cl` [Compound 35, 5-chloro-N^2-(2-methoxy-4-(1-methyl-1H-pyrazol-4-yl)phenyl)-N^4-methylpyrimidine-2,4-diamine], the Ki was found to be 2 nM.

With `CNc1nc(Nc2ccc(-c3cn(C)nc3C)cc2OC)ncc1C(F)(F)F` [Compound 38, N2-(4-(1,3-dimethyl-1H-pyrazol-4-yl)-2-methoxyphenyl)-N4-methyl-5-(trifluoromethyl) pyrimidine-2,4-diamine], the inhibition constant (Ki) was determined as 2 nM.

For `CNc1nc(Nc2cc(F)c(-c3cnn(C)c3C(=O)N(C)C)cc2OC)ncc1C(F)(F)F` [Compound 41, 4-(2-fluoro-5-methoxy-4-(4-(methylamino)-5-(trifluoromethyl)pyrimidin-2-ylamino)phenyl)-N,N,1-trimethyl-1H-pyrazole-5-carboxamide], the affinity, expressed as Ki, was 1 nM.

For the compound `CNc1nc(Nc2cc(F)c(-c3nc(C)no3)cc2OC)ncc1C(F)(F)F` [Compound 6, N2-(5-fluoro-2-methoxy-4-(3-methyl-1,2,4-oxadiazol-5-yl)phenyl)-N4-methyl-5-(trifluoromethyl) pyrimidine-2,4-diamine], affinity was put at a Ki of 32 nM.

In turn, `CNc1nc(Nc2cc(F)c(-c3nnnn3C)cc2OC)ncc1C(F)(F)F` [Compound 22, N^2-(5-fluoro-2-methoxy-4-(1-methyl-1H-tetrazol-5-yl)phenyl)-N^4-methyl-5-(trifluoromethyl) pyrimidine-2,4-diamine] yielded an inhibition constant (Ki) of 10 nM.

Compound `CNc1nc(Nc2ccc(-n3cncn3)cc2OC)ncc1C(F)(F)F` [Compound 4, N2-(2-methoxy-4-(1H-1,2,4-triazol-1-yl)phenyl)-N4-methyl-5-(trifluoromethyl) pyrimidine-2,4-diamine] showed an inhibition constant (Ki) of 3 nM.

Compound `CNc1nc(Nc2ccc(-c3nnn(C)n3)cc2Cl)ncc1C(F)(F)F` [Compound 3, N2-(2-chloro-4-(2-methyl-2H-tetrazol-5-yl)phenyl)-N4-methyl-5-(trifluoromethyl) pyrimidine-2,4-diamine] showed an inhibitory constant (Ki) of 18 nM.

In turn, `CNc1nc(Nc2cc(F)c(-n3nnnc3COC)cc2OC)ncc1C(F)(F)F` [Compound 49, N2-(5-fluoro-2-methoxy-4-(5-(methoxymethyl)-1H-tetrazol-1-yl)phenyl)-N4-methyl-5-(trifluoromethyl) pyrimidine-2,4-diamine] yielded an inhibitory constant (Ki) of 4 nM.

The compound `CNc1nc(Nc2ccc(-c3cnn(C)c3)cc2OC)ncc1C(F)(F)F` [Compound 5, N2-(2-methoxy-4-(1-methyl-1H-pyrazol-4-yl)phenyl)-N4-methyl-5-(trifluoromethyl) pyrimidine-2,4-diamine] came in with a Ki of 4 nM.

`CCNc1nc(Nc2cc(F)c(-c3nnc(C)o3)cc2OC)ncc1C(F)(F)F` [Compound 29, N^4-ethyl-N^2-(5-fluoro-2-methoxy-4-(5-methyl-1,3,4-oxadiazol-2-yl)phenyl)-5-(trifluoromethyl) pyrimidine-2,4-diamine] gave an inhibitory constant (Ki) of 7 nM.

Compound `CNc1nc(Nc2ccc(-c3nnnn3C)cc2OC)ncc1Cl` [Compound 10, 5-chloro-N^2-(2-methoxy-4-(1-methyl-1H-tetrazol-5-yl)phenyl)-N^4-methylpyrimidine-2,4-diamine] returned a Ki of 7 nM.

Compound `CNc1nc(Nc2cc(C)c(-n3nnnc3C)cc2OC)ncc1C(F)(F)F` [Compound 45, N2-(2-methoxy-5-methyl-4-(5-methyl-1H-tetrazol-1-yl)phenyl)-N4-methyl-5-(trifluoromethyl) pyrimidine-2,4-diamine] displayed a Ki of 1 nM.
